The nature of assay [1]: blockade of melanocortin 4 receptor signaling – cell-based, plate reader, cherry pick, counter-screen for LGR2 antagonist project, dose response (AID 743444).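 Note: transfected HEK 293 cells stimulated with alpha-MSH peptide; potency of inhibitors of the alpha-MSH evoked signal.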 It counts as functional.
In assay [2] the target is Paired box protein Pax-8 (Homo sapiens, UniProt Q06710). The assay is described as follows: PAX8 transcriptional activity inhibition in RMG-I – RMG-I cells, luciferase, cherry-pick, dose response (AID 687027).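 Note: luciferase reporter driven by Pax8 target thyroperoxidase promoter measured by SteadyGlo luminescence.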 It counts as functional, cell-based.
Sequence of Paired box protein Pax-8 (Q06710 whole entry): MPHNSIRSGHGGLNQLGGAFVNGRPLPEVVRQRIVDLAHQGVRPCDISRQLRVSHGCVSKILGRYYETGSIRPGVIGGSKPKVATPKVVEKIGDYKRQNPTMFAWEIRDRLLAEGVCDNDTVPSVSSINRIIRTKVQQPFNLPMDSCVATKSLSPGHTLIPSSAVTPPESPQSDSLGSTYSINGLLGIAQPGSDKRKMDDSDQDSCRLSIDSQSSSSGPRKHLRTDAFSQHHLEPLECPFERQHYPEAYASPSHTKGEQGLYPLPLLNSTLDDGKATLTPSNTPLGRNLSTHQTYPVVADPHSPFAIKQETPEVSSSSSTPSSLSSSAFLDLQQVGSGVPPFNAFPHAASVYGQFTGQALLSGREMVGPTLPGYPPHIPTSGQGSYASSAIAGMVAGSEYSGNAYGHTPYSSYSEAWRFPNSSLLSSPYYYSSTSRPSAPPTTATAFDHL
Assay [3] in a line: A549 cell cytotoxicity, dose response, cytotoxicity control, plate reader, cherry-pick, antagonist series (AID 743412). It counts as functional, cell-based.
Assay [4] concerns HEK293. As to the kind of experiment: optical interference in Abeta FP readout, dose response, artefact control for IDE activator project, biochemical, fluorescence polarization (AID 588442). It counts as functional, cell-based. The following applies: Homo sapiens.
Assay [5] is described as follows: reduced cellular PGC1a acetyl-lysine signal – cell-based, cherry-picked samples, dose response (AID 720514).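 Note: potency may reflect raised or lowered acetylation signal.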 It counts as functional.
Assay [6] has as its target T1, Insulin-degrading enzyme (Homo sapiens, UniProt P14735).
T1 sequence (P14735 whole entry): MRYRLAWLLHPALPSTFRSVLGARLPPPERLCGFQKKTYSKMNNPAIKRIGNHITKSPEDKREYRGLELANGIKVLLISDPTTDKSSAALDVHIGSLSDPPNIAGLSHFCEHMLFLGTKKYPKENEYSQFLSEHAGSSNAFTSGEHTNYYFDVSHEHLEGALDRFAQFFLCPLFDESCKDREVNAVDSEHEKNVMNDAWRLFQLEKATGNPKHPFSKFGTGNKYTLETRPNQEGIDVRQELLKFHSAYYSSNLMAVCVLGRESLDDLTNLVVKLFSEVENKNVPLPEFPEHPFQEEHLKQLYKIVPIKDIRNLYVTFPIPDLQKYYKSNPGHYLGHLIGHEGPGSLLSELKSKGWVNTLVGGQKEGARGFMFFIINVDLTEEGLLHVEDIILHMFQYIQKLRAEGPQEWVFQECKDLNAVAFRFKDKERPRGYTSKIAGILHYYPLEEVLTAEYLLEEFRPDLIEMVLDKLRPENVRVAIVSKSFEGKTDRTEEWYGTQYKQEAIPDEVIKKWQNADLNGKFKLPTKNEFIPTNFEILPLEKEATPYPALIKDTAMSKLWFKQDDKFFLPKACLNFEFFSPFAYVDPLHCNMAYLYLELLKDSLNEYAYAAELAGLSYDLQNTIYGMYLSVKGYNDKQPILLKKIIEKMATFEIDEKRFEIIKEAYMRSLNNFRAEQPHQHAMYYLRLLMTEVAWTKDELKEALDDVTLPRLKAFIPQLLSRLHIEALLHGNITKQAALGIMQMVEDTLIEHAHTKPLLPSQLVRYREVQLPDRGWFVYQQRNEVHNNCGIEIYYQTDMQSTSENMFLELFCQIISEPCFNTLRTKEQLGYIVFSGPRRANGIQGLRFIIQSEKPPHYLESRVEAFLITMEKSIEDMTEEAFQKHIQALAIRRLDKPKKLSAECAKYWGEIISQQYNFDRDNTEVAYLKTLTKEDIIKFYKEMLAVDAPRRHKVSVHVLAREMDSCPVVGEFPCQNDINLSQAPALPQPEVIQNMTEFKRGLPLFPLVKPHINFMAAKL
The assay is described as follows: recombinant IDE activation, cell-free – biochemical, fluorescence polarization, counter-screen for IDE activator project, dose response (AID 588681).

Assay [7] has as its target T1, Insulin-degrading enzyme. The assay is described as follows: cellular IDE activation of Abeta substrate cleavage – fluorescence polarization, HEK cells, dose response (AID 588439). Format: functional, cell-based.
Assay [8] has as its target T2, Ubiquitin-conjugating enzyme E2 N (Homo sapiens, UniProt P61088).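 Note: Dose-response confirmation in a TR-FRET assay detecting UBC13-driven polyubiquitin chain formation, inhibition measured.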
T2 sequence (P61088 whole entry): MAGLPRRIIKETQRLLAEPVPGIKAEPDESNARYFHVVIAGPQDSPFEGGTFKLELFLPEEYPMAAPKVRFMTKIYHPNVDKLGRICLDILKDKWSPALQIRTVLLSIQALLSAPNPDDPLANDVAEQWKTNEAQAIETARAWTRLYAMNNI
It counts as functional.

Assay [9] in a line: reduction of Shn3 3'UTR-driven luciferase in osteoblasts – cell-based, Clone20 osteoblasts, firefly luciferase, cherry-picked, dose response (AID 624132).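 Note: firefly luciferase luminescence from reporter carrying the Shn3 3'UTR in osteoblasts.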 It counts as functional.
Assay [10] in a line: toxicity toward HepG2 liver cells – cell-based, plate reader, cherry-pick, antagonist series, cytotoxicity control, dose response (AID 743416). It counts as functional.
Assay [11] concerns the target T3, Replicative DNA helicase DnaB (Mycobacterium tuberculosis, UniProt P9WMR3).
T3 sequence (P9WMR3 whole entry): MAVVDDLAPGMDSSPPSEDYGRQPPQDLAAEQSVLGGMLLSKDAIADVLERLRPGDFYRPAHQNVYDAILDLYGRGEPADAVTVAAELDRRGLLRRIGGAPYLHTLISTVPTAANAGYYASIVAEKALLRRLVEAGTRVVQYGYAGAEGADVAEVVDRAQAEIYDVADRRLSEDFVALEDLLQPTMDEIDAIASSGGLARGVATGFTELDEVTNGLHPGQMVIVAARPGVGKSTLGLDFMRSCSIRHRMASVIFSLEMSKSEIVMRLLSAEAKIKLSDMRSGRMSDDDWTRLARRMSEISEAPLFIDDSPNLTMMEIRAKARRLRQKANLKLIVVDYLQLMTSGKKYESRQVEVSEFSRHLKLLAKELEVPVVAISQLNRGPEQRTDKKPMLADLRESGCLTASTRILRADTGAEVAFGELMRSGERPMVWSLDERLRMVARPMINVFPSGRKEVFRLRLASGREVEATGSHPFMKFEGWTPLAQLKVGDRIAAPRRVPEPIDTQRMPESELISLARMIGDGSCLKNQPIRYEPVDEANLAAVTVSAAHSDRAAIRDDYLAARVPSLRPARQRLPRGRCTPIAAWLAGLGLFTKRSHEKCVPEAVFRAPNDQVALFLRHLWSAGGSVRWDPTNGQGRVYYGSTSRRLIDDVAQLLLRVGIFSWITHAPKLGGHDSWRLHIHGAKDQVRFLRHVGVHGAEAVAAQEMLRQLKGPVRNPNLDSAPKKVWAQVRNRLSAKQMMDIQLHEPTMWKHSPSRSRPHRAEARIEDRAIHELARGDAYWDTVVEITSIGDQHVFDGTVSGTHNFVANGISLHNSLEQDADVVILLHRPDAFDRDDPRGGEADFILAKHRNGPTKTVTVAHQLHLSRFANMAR
As to the kind of experiment: DnaB intein splicing inhibitors, dose response, biochemical, cell-free fluorescence (AID 449749). Format: functional.

Structures are written as SMILES. Calls of active or inactive are those of the source.

AC50, EC50 and IC50 data for one compound are collected here from ChEMBL document CHEMBL1201862, “PubChem BioAssay data set” (2004).

For `Cl.N=c1n(Cc2ccccc2)c2ccccc2n1CC(O)COc1ccc(Cl)cc1Cl` (stereo unspecified), the AC50 is 26.6 µM (active) in [1]; 17.2 µM (active) in [2]; 6.26 µM (active) in assay [3]; 6.94 µM (active) in [5]; 2.89 µM (active) in assay [9]; 6.16 µM (active) in assay [10]. Also, the AC50 in assay [11] is 2.51 µM (active). Moreover, the EC50 is > 54.7 µM (inactive) in [4], 40.1 µM (inactive) in assay [6] and 11.2 µM (inactive) in assay [7]. Besides, the IC50 in assay [8] was > 20 µM (inactive).
